Holding throughout (format): functional
Experiment [1] has as its system Pseudomonas aeruginosa. Nature of the experiment: Antibacterial activity against Pseudomonas aeruginosa ATCC 9027 by agar cup-plate method relative to penicillin-G. The arrangement: concentration or dose not given beside the values.
Experiment [2] deals with Bacillus subtilis. The experiment is described as follows: Antibacterial activity against Bacillus subtilis ATCC 6633 at 100 ug/ml by agar cup plate method. As to conditions: read-out: IZ.
Experiment [3] concerns Aspergillus niger. The experiment is described as follows: Antifungal activity against Aspergillus niger ATCC 6275 at 10 ug/ml by agar cup-plate method. The settings on record: read-out: IZ.
Experiment [4] has as its system Candida albicans. The experiment is described as follows: Antifungal activity against Candida albicans ATCC 10231 at 20 ug/ml by agar cup-plate method. The settings on record: read-out: IZ.
Experiment [5] has as its system Bacillus subtilis. The experiment is described as follows: Antibacterial activity against Bacillus subtilis ATCC 6633 by agar cup plate method relative to penicillin-G. The arrangement: concentration or dose not given beside the values.
Experiment [6] deals with Escherichia coli. Nature of the experiment: Antibacterial activity against Escherichia coli ATCC 25922 by agar cup-plate method relative to penicillin-G. The arrangement: concentration or dose not given beside the values.
Experiment [7] relates to Escherichia coli. The experiment is described as follows: Antibacterial activity against Escherichia coli ATCC 25922 at 100 ug/ml by agar cup-plate method. As to conditions: read-out: IZ.
The test system of experiment [8] is Pseudomonas aeruginosa. The experiment is described as follows: Antibacterial activity against Pseudomonas aeruginosa ATCC 9027 at 100 ug/ml by agar cup-plate method. The settings on record: read-out: IZ.
Experiment [9] concerns Candida albicans. The experiment is described as follows: Antifungal activity against Candida albicans ATCC 10231 at 10 ug/ml by agar cup-plate method. As to conditions: read-out: IZ.
Experiment [10] has as its system Candida albicans. Nature of the experiment: Antifungal activity against Candida albicans ATCC 10231 by agar cup-plate method relative to fluconazole. The arrangement: concentration or dose not given beside the values.
The test system of experiment [11] is Escherichia coli. The experiment is described as follows: Antibacterial activity against Escherichia coli ATCC 25922 at 50 ug/ml by agar cup-plate method. The settings on record: read-out: IZ.
In experiment [12] the test system is Aspergillus niger. Nature of the experiment: Antifungal activity against Aspergillus niger ATCC 6275 by agar cup-plate method relative to fluconazole. More on the design: concentration or dose not given beside the values.
The subject of experiment [13] is Bacillus subtilis. Nature of the experiment: Antibacterial activity against Bacillus subtilis ATCC 6633 at 50 ug/ml by agar cup plate method. As to conditions: read-out: IZ.
Experiment [14] relates to Staphylococcus aureus. The experiment is described as follows: Antibacterial activity against Staphylococcus aureus ATCC 9144 at 50 ug/ml by agar cup-plate method. As to conditions: read-out: IZ.
Experiment [15] relates to Staphylococcus aureus. Nature of the experiment: Antibacterial activity against Staphylococcus aureus ATCC 9144 at 100 ug/ml by agar cup-plate method. As to conditions: read-out: IZ.
Experiment [16] concerns Staphylococcus aureus. The experiment is described as follows: Antibacterial activity against Staphylococcus aureus ATCC 9144 by agar cup-plate method relative to penicillin-G. The arrangement: concentration or dose not given beside the values.
For experiment [17], the system named is Aspergillus niger. The experiment is described as follows: Antifungal activity against Aspergillus niger ATCC 6275 at 20 ug/ml by agar cup-plate method. As to conditions: read-out: IZ.
Experiment [18] concerns Pseudomonas aeruginosa. Nature of the experiment: Antibacterial activity against Pseudomonas aeruginosa ATCC 9027 at 50 ug/ml by agar cup-plate method. As to conditions: read-out: IZ.

For `COc1ccccc1C1CC(Nn2c(Cc3ccccc3Nc3ccccc3)nc3ccc(I)cc3c2=O)=NN1` (stereo unspecified), the Activity was determined as 63.19% in the experiment on Pseudomonas aeruginosa [1]; 38.97% in the experiment on Bacillus subtilis [5]; 52.45% with Escherichia coli [6]; 45.11% in the experiment with Candida albicans [10]; 41.3% with Aspergillus niger [12]; 36.21% in the experiment on Staphylococcus aureus [16]. Also, the zone of inhibition at 100 µg/mL in the experiment with Bacillus subtilis [2] is 10 mm; in the experiment with Escherichia coli [7] it was 16 mm; with Pseudomonas aeruginosa [8] it was 17 mm; with Staphylococcus aureus [15], 9 mm. For the same compound, the zone of inhibition at 10 µg/mL in the experiment on Aspergillus niger [3] and with Candida albicans [9] was 0 mm each time. The zone of inhibition at 20 µg/mL in the experiment with Candida albicans [4] and with Aspergillus niger [17] was 6 mm in each case. Further, the zone of inhibition at 50 µg/mL with Escherichia coli [11] amounted to 13 mm; with Bacillus subtilis [13], 8 mm; in the experiment with Staphylococcus aureus [14], 7 mm; with Pseudomonas aeruginosa [18] it was 13 mm.
Regarding `COc1ccc(C2CC(Nn3c(Cc4ccccc4Nc4ccccc4)nc4ccc(I)cc4c3=O)=NN2)cc1` (stereo unspecified), the Activity in the experiment on Pseudomonas aeruginosa [1] is 68.97%; in the experiment on Bacillus subtilis [5] it was 41.49%; in the experiment with Escherichia coli [6], 57.71%; in the experiment with Candida albicans [10], 49.07%; in the experiment with Aspergillus niger [12], 45.04%; with Staphylococcus aureus [16] it was 38.15%. For the same compound, the zone of inhibition at 100 µg/mL with Bacillus subtilis [2] turned out to be 11 mm; in the experiment with Escherichia coli [7] it was 18 mm; in the experiment with Pseudomonas aeruginosa [8] it was 19 mm; with Staphylococcus aureus [15], 10 mm. Further, the zone of inhibition at 10 µg/mL in the experiment on Aspergillus niger [3] and in the experiment on Candida albicans [9] was 0 mm each time. The zone of inhibition at 20 µg/mL with Candida albicans [4] and with Aspergillus niger [17] was 7 mm in each case. Besides, the zone of inhibition at 50 µg/mL in the experiment on Escherichia coli [11] was 15 mm; in the experiment on Bacillus subtilis [13], 9 mm; in the experiment with Staphylococcus aureus [14], 8 mm; in the experiment with Pseudomonas aeruginosa [18], 15 mm.
In the case of `CN(C)c1ccc(C2CC(Nn3c(Cc4ccccc4Nc4ccccc4)nc4ccc(I)cc4c3=O)=NN2)cc1` (stereo unspecified), the Activity in the experiment with Pseudomonas aeruginosa [1] came to 48.61%; in the experiment on Bacillus subtilis [5], 45.27%; with Escherichia coli [6] it was 40.81%; with Candida albicans [10] it was 68.81%; in the experiment with Aspergillus niger [12], 60.1%; in the experiment with Staphylococcus aureus [16] it was 48.23%. The zone of inhibition at 100 µg/mL is 7 mm with Bacillus subtilis [2], 6 mm in the experiment on Escherichia coli [7], 7 mm with Pseudomonas aeruginosa [8] and 7 mm in the experiment on Staphylococcus aureus [15]. The zone of inhibition at 10 µg/mL in the experiment with Aspergillus niger [3] is 14 mm; in the experiment on Candida albicans [9] it was 15 mm. The zone of inhibition at 20 µg/mL in the experiment on Candida albicans [4] was 18 mm; with Aspergillus niger [17] it was 17 mm. Besides, the zone of inhibition at 50 µg/mL in the experiment with Escherichia coli [11], in the experiment on Bacillus subtilis [13], in the experiment with Staphylococcus aureus [14] and in the experiment on Pseudomonas aeruginosa [18] was 0 mm throughout.
Regarding `OC(Cn1cncn1)(Cn1cncn1)c1ccc(F)cc1F` [FLUCONAZOLE], the zone of inhibition at 10 µg/mL is 22 mm in the experiment on Aspergillus niger [3] and 21 mm in the experiment on Candida albicans [9]. Moreover, the zone of inhibition at 20 µg/mL worked out at 26 mm in the experiment on Candida albicans [4] and 28 mm with Aspergillus niger [17].
Consider `CC1(C)S[C@@H]2[C@H](NC(=O)Cc3ccccc3)C(=O)N2[C@H]1C(=O)O` [PENICILLIN G], for which the zone of inhibition at 100 µg/mL with Bacillus subtilis [2] was 27 mm; in the experiment on Escherichia coli [7], 31 mm; in the experiment on Pseudomonas aeruginosa [8], 28 mm; in the experiment with Staphylococcus aureus [15], 30 mm. The zone of inhibition at 50 µg/mL in the experiment on Escherichia coli [11] was 25 mm; in the experiment with Bacillus subtilis [13], 21 mm; in the experiment on Staphylococcus aureus [14] it was 25 mm; with Pseudomonas aeruginosa [18], 23 mm.

The values above are taken from ChEMBL document CHEMBL3045169, “In vitro evaluation of the antibacterial and antifungal activity of some new pyrazolyl-quinazolin-4(3H)-one derivatives” (2012).
